Results reported in publication PMC7132963, “NTP42, a novel antagonist of the thromboxane receptor, attenuates experimentally induced pulmonary arterial hypertension” (BMC Pulmonary Medicine, 2020).

Target: T1, TPβ isoform of the human T Prostanoid receptor (thromboxane receptor, TP) (Homo sapiens, UniProt P21731)
T1 construct: gene TBXA2R; TPβ isoform, stably over-expressed in HEK 293 cells (HEK.TPβ line)
T1 sequence (P21731 1-328 limits assumed): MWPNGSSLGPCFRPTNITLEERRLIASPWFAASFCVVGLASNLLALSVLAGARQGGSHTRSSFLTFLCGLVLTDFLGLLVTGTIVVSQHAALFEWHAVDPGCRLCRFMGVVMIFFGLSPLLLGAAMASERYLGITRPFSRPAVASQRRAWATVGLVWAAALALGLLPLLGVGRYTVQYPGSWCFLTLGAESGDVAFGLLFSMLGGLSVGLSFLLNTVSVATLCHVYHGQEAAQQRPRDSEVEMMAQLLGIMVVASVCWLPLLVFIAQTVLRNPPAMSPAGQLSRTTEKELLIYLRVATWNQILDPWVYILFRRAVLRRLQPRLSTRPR
Assay: antagonism of U46619-stimulated intracellular calcium mobilization in HEK.TPβ cells (also vs 8-iso-PGF2α, IC50 […])
Format: cell-based

IC50: 8.86 ± 3.07 nM
SMILES: CC(C)(C)NC(=O)NS(=O)(=O)c1cc(C#N)ccc1Oc1cccc(-c2ccc(OC(F)F)cc2)c1 [NTP42]
